Results as given in US20060189608A1, “Methods for treating ocular angiogenesis, retinal edema, retinal ischemia, and diabetic retinopathy using selective RTK inhibitors” (Alcon, Inc., priority 2005, published 2006).

Experiments:
[1] = system: rat model of oxygen-induced retinopathy; assay: Preretinal neovascularization, rat OIR model, intravitreal injection; assay type: in vivo, Sprague-Dawley rats; conditions: for % Inhibition (vs. vehicle-injected eye) / Median NV / NV Range: 5 μl intravitreal; for % Inhibition (vs. vehicle-injected eye): preretinal NV; for Median NV / NV Range: NV clockhour score
From the text: METHODS: Pregnant Sprague-Dawley rats were received at 14 days gestation and subsequently gave birth on Day 22±1 of gestation. Immediately following parturition, pups were pooled and randomized into separate litters (n=17 pups/litter), placed into separate shoebox cages inside oxygen delivery chamber, and subjected to an oxygen-exposure profile from Day 0-14 postpartum. Litters were then placed into room air from Day 14/0 through Day 14/6 (days 14-20 postpartum). Additionally on Day 14/0, each pup was randomly assigned as an oxygen-exposed control or into various treatment groups. […] At Day 14/6 (20 days postpartum), all animals in both studies were euthanized.
(§1) Immediately following euthanasia, retinas from all rat pups were harvested, fixed in 10% neutral buffered formalin for 24 hours, subjected to ADPase staining, and fixed onto slides as whole mounts. Digital images were acquired from each retinal flat mount that was adequately prepared. Computerized image analysis was used to obtain a NV clockhour score from each readable sample. Each clockhour out of 12 total per retina was assessed for the presence or absence of preretinal NV. Statistical comparisons using median scores for NV clockhours from each treatment group were utilized in nonparametric analyses. Each noninjected pup represented one NV score by taking the average value of both eyes and was used in comparisons against each dosage group. Because the pups were randomly assigned and no difference was observed between oxygen-exposed control pups from all litters, the NV scores were combined for all treatment groups. P≦0.05 was considered statistically significant.

[2] = system: rat OIR model; assay: Preretinal neovascularization, rat OIR model, oral gavage; assay type: in vivo, Sprague-Dawley rats; conditions: for % Inhibition (vs vehicle-injected eye): preretinal NV
Protocol: as §1
METHODS: Pregnant Sprague-Dawley rats were received at 14 days gestation and subsequently gave birth on Day 22±1 of gestation. Immediately following parturition, pups were pooled and randomized into separate litters (n=17 pups/litter), placed into separate shoebox cages inside oxygen delivery chamber, and subjected to an oxygen-exposure profile from Day 0 to Day 14 postpartum. Litters were then placed into room air from Day 14/0 through Day 14/6 (days 14-20 postpartum). Additionally on Day 14/0, each pup was randomly assigned as oxygen-exposed controls, vehicle treated, or drug-treated at 1.5, 5, 10 mg/kg, p.o., BID. At Day 14/6 (20 days postpartum), all animals in both studies were euthanized and retina whole mounts were prepared as described in Example 1 above.

[3] = Pilot intraocular safety study, single intravitreal injection, adult rat; assay type: in vivo; conditions: single intravitreal injection of 0.1 and 1.0%, up to 1 month postinjection
From the text: Outcome measures were followed up to 1 month postinjection and involved clinical (fundus photography & indirect ophthalmoscopy), functional (electroretinography), and morphologic (histopathology) methods.

[4] = system: existing laser-induced choroidal neovascularization (CNV); assay: Laser-induced CNV, oral gavage, regression paradigm, mouse; assay type: in vivo; conditions: for Mean CNV / Median CNV: regression
Protocol: Methods. CNV was generated by laser-induced rupture of Bruch's membrane. Briefly, 4 to 5 week old male C57BL/6J mice were anesthetized using intraperitoneal administration of ketamine hydrochloride (100 mg/kg) and xylazine (5 mg/kg) and the pupils of both eyes dilated with topical ocular instillation of 1% tropicamide and 2.5% Mydfin®. One drop of topical cellulose (Gonioscopic®) was used to lubricate the cornea. A hand-held cover slip was applied to the cornea and used as a contact lens to aid visualization of the fundus. Three to four retinal burns were placed in randomly assigned eye (right or left eye for each mouse) using the Alcon 532 nm EyeLite laser with a slit 5 lamp delivery system. The laser burns were used to generate a rupture in Bruch's membrane, which was indicated ophthalmoscopically by the formation of a bubble under the retina. Only mice with laser burns that produced three bubbles per eye were included in the study. Bums were typically placed at the 3, 6, 9 or 12 o'clock positions in the posterior pole of the retina, avoiding the branch retinal arteries and veins.
Each mouse was randomly assigned into one of the following treatment groups: noninjected controls, sham-injected controls, vehicle-injected mice, or one of three RTKi-injected groups. Control mice received laser photocoagulation in both eyes, where one eye received a sham injection, i.e. a pars plana needle puncture. […] The intravitreal injection was performed immediately after laser photocoagulation. At 14 days post-laser, all mice were anesthetized and systemically perfused with fluorescein-labeled dextran. Eyes were then harvested and prepared as choroidal flat mounts with the RPE side oriented towards the observer. All choroidal flat mounts were examined using a fluorescent microscope. Digital images of the CNV were captured, where the CNV was identified as areas of hyperfluorescence within the pigmented background. Computerized image analysis was used to delineate and measure the two dimensional area of the hyperfluorescent CNV per lesion (um^2) for the outcome measurement. The median CNV area/burn per mouse per treatment group or the mean CNV area/burn per treatment group was used for statistical analysis depending on the normality of data distribution; P≦0.05 was considered significant.
METHODS: CNV was generated by laser-induced rupture of Bruch's membrane as described in Example 3 above. […] The mice received an oral gavage of 0, 1.5, 5, or 10 mg/kg twice per day and for 14 days post-laser. […] Oral gavage dosing was continued twice per day for 14 days post-laser. Several mice were Is euthanized at day 7 post-laser and used for controls. At 14 days post-laser, all mice were anesthetized and systemically perfused with fluorescein-labeled dextran. Eyes were then harvested and prepared as choroidal flat mounts as described in Example 3 above.

[5] = molecular target: LYN (Homo sapiens, UniProt P07948); assay: Kinase inhibition profile, non-related TK; assay type: biochemical; conditions: ATP concentration of 1 nM
Chain of LYN (P07948 whole entry): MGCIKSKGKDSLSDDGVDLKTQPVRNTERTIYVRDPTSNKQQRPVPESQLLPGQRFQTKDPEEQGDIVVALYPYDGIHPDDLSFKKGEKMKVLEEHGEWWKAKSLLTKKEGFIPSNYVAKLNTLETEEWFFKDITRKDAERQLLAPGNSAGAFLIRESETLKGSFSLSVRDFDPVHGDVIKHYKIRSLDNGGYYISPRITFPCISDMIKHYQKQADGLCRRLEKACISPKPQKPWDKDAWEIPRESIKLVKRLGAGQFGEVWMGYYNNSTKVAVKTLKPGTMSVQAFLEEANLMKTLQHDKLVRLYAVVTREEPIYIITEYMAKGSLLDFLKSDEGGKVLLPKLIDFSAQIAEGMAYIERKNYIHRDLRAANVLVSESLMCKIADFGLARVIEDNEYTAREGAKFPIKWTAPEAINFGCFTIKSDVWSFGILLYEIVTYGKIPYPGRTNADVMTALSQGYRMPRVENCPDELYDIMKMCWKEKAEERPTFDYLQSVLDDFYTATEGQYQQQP

[6] = molecular target: IGFR (Homo sapiens, UniProt P08069); assay: Kinase inhibition profile, non-related TK; assay type: biochemical; conditions: ATP concentration of 1 nM
Chain of IGFR (P08069 31-1367): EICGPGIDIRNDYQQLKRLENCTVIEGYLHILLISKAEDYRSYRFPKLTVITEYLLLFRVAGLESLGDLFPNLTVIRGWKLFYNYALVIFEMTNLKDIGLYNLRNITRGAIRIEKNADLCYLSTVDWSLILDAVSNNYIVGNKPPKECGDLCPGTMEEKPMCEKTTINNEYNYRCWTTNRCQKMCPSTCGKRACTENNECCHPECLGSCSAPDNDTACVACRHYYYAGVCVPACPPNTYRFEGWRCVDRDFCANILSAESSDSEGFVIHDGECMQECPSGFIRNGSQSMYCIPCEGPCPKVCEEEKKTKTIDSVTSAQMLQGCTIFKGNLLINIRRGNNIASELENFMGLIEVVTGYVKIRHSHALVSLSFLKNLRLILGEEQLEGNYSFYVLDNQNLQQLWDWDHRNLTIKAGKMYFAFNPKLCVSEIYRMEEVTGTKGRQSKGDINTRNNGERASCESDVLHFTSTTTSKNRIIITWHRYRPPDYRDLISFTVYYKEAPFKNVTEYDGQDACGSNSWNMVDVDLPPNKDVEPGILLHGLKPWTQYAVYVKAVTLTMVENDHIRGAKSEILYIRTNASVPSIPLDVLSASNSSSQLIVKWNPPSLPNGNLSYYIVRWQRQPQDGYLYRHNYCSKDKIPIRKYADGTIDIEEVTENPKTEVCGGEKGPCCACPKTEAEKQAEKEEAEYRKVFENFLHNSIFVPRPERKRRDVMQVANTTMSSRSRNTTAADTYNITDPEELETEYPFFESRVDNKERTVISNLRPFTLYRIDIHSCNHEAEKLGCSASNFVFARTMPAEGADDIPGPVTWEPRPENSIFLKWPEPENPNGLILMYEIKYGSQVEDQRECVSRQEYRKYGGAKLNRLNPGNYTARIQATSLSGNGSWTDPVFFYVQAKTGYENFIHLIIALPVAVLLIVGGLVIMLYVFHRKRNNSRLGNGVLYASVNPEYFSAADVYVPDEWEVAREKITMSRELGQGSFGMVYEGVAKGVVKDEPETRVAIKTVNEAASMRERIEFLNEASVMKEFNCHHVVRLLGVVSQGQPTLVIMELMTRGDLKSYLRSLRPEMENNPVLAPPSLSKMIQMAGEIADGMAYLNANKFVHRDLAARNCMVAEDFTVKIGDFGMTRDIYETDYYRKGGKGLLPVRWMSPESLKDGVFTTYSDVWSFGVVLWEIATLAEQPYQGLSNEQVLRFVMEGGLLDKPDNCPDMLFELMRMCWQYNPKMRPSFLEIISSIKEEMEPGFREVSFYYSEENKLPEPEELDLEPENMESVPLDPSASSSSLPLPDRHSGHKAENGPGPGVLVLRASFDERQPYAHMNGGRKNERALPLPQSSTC

## Cc1ccc(F)c(NC(=O)Nc2ccc(-c3cccc4[nH]nc(N)c34)cc2)c1 [AL-39324, N-[4-[3-amino-1H-indazol-4-yl)phenyl]-N′-(2-fluoro-5-methylphenyl)urea]
[1]; 0.1% treated eyes
  efficacy against preretinal NV: Efficacy was not observed
[1]; 0.1%
  % Inhibition (vs. vehicle-injected eye): 37%
  Median NV: 2.835
  NV Range: 1.1-5.3
[1]; 0.3%
  % Inhibition (vs. vehicle-injected eye): 100%
  Median NV: 0
  NV Range: 0-5
[1]; 0.6%
  % Inhibition (vs. vehicle-injected eye): 100%
  Median NV: 0
  NV Range: 0-1.1
[1]; 1%
  % Inhibition (vs. vehicle-injected eye): 100%
  Median NV: 0
  NV Range: 0-2
[1]; between 0.3%-1% suspensions, intravitreal
  inhibition of preretinal NV: 100%
[2]; 3 mg/kg in PEG 400, p.o.
  Median NV: 7.5
  NV Range: 3.8-9.8
[2]; 3 mg/kg in PEG 400, p.o. (per day, BID)
  % Inhibition (vs vehicle-injected eye): −1.4%
[2]; 3 mg/kg/day p.o.
  decrease in NV: did not have a significant decrease in NV
[2]; 10 mg/kg in PEG 400, p.o.
  Median NV: 1.105
  NV Range: 0-8
[2]; 10 mg/kg in PEG 400, p.o. (per day, BID)
  % Inhibition (vs vehicle-injected eye): 86.4%
[2]; 20 mg/kg in PEG 400, p.o.
  Median NV: 0
  NV Range: 0
[2]; 20 mg/kg in PEG 400, p.o. (per day, BID)
  % Inhibition (vs vehicle-injected eye): 100%
[2]; 20 mg/kg/day p.o.
  inhibition of preretinal NV: complete inhibition of preretinal NV
[3]
  adverse events (fundus, electroretinography, histopathology): No significant adverse events
[4]; 3 mg/kg/day oral from day 7 post-laser
  regression of existing CNV: did not show a significant regression of existing CNV
[4]; 3 mg/kg/day oral
  Mean CNV: 35442 μm^2
  Median CNV: 33967 μm^2
[4]; 10 mg/kg/day oral from day 7 post-laser
  regression of existing CNV as compared to nontreated controls: 41.8%
[4]; 10 mg/kg/day oral
  Mean CNV: 29773 μm^2
  Median CNV: 27389 μm^2
[4]; 20 mg/kg/day oral from day 7 post-laser
  regression of existing CNV as compared to nontreated controls: 68.0%
[4]; 20 mg/kg/day oral
  Mean CNV: 15706 μm^2
  Median CNV: 15036 μm^2
[5]
  IC50: > 20 µM
[6]
  IC50: > 50 µM
